Earlier results as cited in patent publication US20110196036A1, “USE OF BETAINE” (DANISCO A/S, priority 2008, published 2011).

Conditions: pure form; water and lower alcohols

SMILES: C[N+](C)(C)CC(=O)[O-] [betaine, trimethylglycine]
- solubility: readily soluble in water and lower alcohols
